As usually defined, the EC50 is the concentration needed to bring the measured effect to its halfway point. The term IC50 denotes the midpoint of a concentration-inhibition curve. Higher therefore signals a need for much substance.

Assay [1] has as its system Jurkat NFκB-luciferase cells. The assay is described as follows: Jurkat NFκB-Luciferase Assay.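 Also: bioluminescence read-out normalized to DMSO basal activation and to maximum enhancement at 1 µM compound, rising signal indicating stronger T-cell activation through DGKα inhibition.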 Type of assay: cell-based. The settings on record: Homo sapiens; Jurkat NFκB-luciferase cells activated with anti-CD3 antibody (OKT3), 2.5 hrs at 37° C., One-Glo Ex; geometric mean; read-out: DGK NFKb Luciferase EC50.
A further assay addresses T1, human DGKα (Homo sapiens, UniProt P23743).
T1 construct: purchased Carna Biosciences'; inferred from the same paragraph's 'obtained from Carna Biosciences')
Nature of the assay: DGKα Biochemical Activity Assay (ADP-Glo).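 Also: recombinant enzyme converting diacylglycerol in lipid micelles with ATP, ADP formed detected by luminescence, IC50 from a four-parameter nonlinear fit, geometric mean across experiments.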 Background: In ADP-Glo the light output rises with the ADP produced.

T1 sequence (P23743 whole entry): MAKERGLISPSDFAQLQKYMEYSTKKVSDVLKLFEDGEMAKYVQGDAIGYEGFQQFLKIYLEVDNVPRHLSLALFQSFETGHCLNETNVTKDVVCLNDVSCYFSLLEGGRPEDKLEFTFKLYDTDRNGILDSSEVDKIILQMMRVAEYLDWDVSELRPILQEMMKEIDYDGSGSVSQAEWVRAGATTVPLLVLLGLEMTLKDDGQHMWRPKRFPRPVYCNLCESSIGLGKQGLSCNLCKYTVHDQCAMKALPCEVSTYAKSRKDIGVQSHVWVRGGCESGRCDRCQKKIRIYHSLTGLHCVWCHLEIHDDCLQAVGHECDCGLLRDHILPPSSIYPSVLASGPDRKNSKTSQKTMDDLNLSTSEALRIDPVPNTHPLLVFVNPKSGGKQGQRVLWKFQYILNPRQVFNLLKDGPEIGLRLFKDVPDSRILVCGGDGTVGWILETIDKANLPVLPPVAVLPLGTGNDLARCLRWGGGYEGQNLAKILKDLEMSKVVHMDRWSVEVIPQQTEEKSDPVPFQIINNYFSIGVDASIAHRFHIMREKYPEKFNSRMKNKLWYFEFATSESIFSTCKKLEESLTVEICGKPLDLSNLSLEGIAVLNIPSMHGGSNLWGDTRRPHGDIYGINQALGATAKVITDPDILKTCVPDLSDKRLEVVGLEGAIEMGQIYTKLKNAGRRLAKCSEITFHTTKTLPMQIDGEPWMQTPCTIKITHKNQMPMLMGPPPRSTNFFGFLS

On to `O=c1nc(N2CCCc3c(C#CC4(C(F)(F)F)CC4)cncc32)c2c(F)c(F)ccc2[nH]1` [Example 74, 5,6-difluoro-4-(5-((1-(trifluoromethyl)cyclopropyl)ethynyl)-3,4-dihydro-1,7-naphthyridin-1(2H)-yl)quinazolin-2(1H)-one], for which the EC50 in assay [1] worked out at 0.222 nM. Moreover, on human DGKα, it took 2.83 nM to reach half-maximal inhibition (IC50).
The matching figures for `[2H]C([2H])([2H])n1c(=O)nc(N(CC(F)F)c2cc(F)cc(C#CC3(C(F)(F)F)CC3)c2)c2cc(F)ccc21` [Example 51, 4-[N-(2,2-difluoroethyl)-3-fluoro-5-[2-[1-(trifluoromethyl)cyclopropyl]ethynyl]anilino]-6-fluoro-1-(trideuteriomethyl)quinazolin-2-one]: 0.75 nM and 35.3 nM.
On the same counts, the results for `CCC(O)(C#Cc1cccc2c1CCCN2c1nc(=O)[nH]c2cccc(F)c12)CC` [Example 57, 4-[5-(3-ethyl-3-hydroxy-pent-1-ynyl)-3,4-dihydro-2H-quinolin-1-yl]-5-fluoro-1H-quinazolin-2-one] are 9.99 nM and 150 nM.
In the case of `CN(c1cccc(-c2ccc(N3CCCS3(=O)=O)cc2)c1)c1nc(=O)n(C)c2cc(Cl)ccc12` [Example 10, 7-chloro-4-[3-[4-(1,1-dioxo-1,2-thiazolidin-2-yl)phenyl]-N-methyl-anilino]-1-methyl-quinazolin-2-one], the EC50 in assay [1] was determined as 1.51 nM. Inhibition against human DGKα was half-maximal at 14 nM (IC50).
Consider `[2H]C([2H])([2H])n1c(=O)nc(N2CCOCc3c(C#CC4CCCN4C(=O)C4CC4)cccc32)c2c(F)cccc21` (stereo not shown) [Example 169, 4-[6-[2-[1-(cyclopropanecarbonyl)pyrrolidin-2-yl]ethynyl]-3,5-dihydro-2H-4,1-benzoxazepin-1-yl]-5-fluoro-1-(trideuteriomethyl)quinazolin-2-one], for which, in assay [1], the EC50 is 12.8 nM. The compound also gave an IC50 on human DGKα of 9.06 nM.
The matching figures for `[2H]C([2H])([2H])n1c(=O)nc(N2CCCc3c(C#CC4CCN(C)C4)cccc32)c2c(F)cccc21` (stereo not shown) [Example 166, 5-fluoro-4-[5-[2-(1-methylpyrrolidin-3-yl)ethynyl]-3,4-dihydro-2H-quinolin-1-yl]-1-(trideuteriomethyl)quinazolin-2-one]: 6.71 nM and 71.5 nM.
The matching figures for `O=c1nc(N2CCOCc3c(C#CC4(C(F)(F)F)CC4)cccc32)c2c(F)ccc(F)c2[nH]1` [Example 144]: 5.34 nM and 21.8 nM.
On the same counts, the results for `CC(C)(O)C#Cc1cccc2c1OCCCN2c1nc(=O)[nH]c2cccc(F)c12` [Example 82, 5-fluoro-4-[9-(3-hydroxy-3-methyl-but-1-ynyl)-3,4-dihydro-2H-1,5-benzoxazepin-5-yl]-1H-quinazolin-2-one] are 18 nM and 4.42 nM.
On to `[2H]C([2H])([2H])n1c(=O)nc(N2CCOCc3c(C#CC4(C(F)(F)F)CCN(CC(F)F)C4)cccc32)c2c(F)cccc21` (stereo not shown) [Example 172, 4-[6-[2-[1-(2,2-difluoroethyl)-3-(trifluoromethyl)pyrrolidin-3-yl]ethynyl]-3,5-dihydro-2H-4,1-benzoxazepin-1-yl]-5-fluoro-1-(trideuteriomethyl)quinazolin-2-one], for which the concentration giving a half-maximal response (EC50) in assay [1] was found to be 1.4 nM. Besides, the IC50 on human DGKα stood at 8.07 nM.
On the same counts, the results for `O=c1nc(N(CC(F)F)c2cccc(C#CC3(C(F)(F)F)CC3)c2F)c2cc(F)ccc2[nH]1` [Example 48, 4-[N-(2,2-difluoroethyl)-2-fluoro-3-[2-[1-(trifluoromethyl)cyclopropyl]ethynyl]anilino]-6-fluoro-1H-quinazolin-2-one] are 5.29 nM and 62.8 nM.
As to `O=c1nc(N(CC(F)F)c2cc(F)cc(-c3ccc(C(F)F)nc3)c2)c2c(F)cccc2[nH]1` [Example 18, 4-[N-(2,2-difluoroethyl)-3-[6-(difluoromethyl)-3-pyridyl]-5-fluoro-anilino]-5-fluoro-1H-quinazolin-2-one], the EC50 in assay [1] was 2.63 nM. Also, half-maximal inhibition at human DGKα (IC50) was put at 54.4 nM.
In the case of `O=c1nc(N2CCCc3c(C#CC4(C(F)F)CC4)cncc32)c2c(F)c(F)ccc2[nH]1` [Example 108, 4-(5-((1-(difluoromethyl)cyclopropyl)ethynyl)-3,4-dihydro-1,7-naphthyridin-1(2H)-yl)-5,6-difluoroquinazolin-2(1H)-one], in assay [1], the EC50 amounted to 1.43 nM. On human DGKα, this compound came in with an IC50 of 6.85 nM.
On the same counts, the results for `CC(C)(C#Cc1cccc(N(CC(F)F)c2nc(=O)[nH]c3cccc(F)c23)c1F)C(F)(F)F` [Example 60, 4-[N-(2,2-difluoroethyl)-2-fluoro-3-(4,4,4-trifluoro-3,3-dimethyl-but-1-ynyl)anilino]-5-fluoro-1H-quinazolin-2-one] are 2.53 nM and 122 nM.
As for `Cn1c(=O)nc(N(CC(F)F)c2cccc(C#CC3(C(F)(F)F)CC3)n2)c2cc(F)ccc21` [Example 47, 4-((2,2-difluoroethyl)(6-((1-(trifluoromethyl)cyclopropyl)ethynyl)pyridin-2-yl)amino)-6-fluoro-1-methylquinazolin-2(1H)-one], the EC50 in assay [1] came out at 1.37 nM. On human DGKα, this compound had an IC50 of 15 nM.
On the same counts, the results for `Cn1c(=O)nc(N(CC(F)(F)F)c2cc(F)cc(C#CC3(C(F)(F)F)CC3)c2)c2cc(F)ccc21` [Example 30, 6-fluoro-4-[3-fluoro-N-(2,2,2-trifluoroethyl)-5-[2-[1-(trifluoromethyl)cyclopropyl]ethynyl]anilino]-1-methyl-quinazolin-2-one] are 1.94 nM and 27.1 nM.
The matching figures for `CC(C)(C#N)C#Cc1cc(N(CC(F)F)c2nc(=O)[nH]c3ccc(F)c(F)c23)ccn1` [Example 77, 4-[4-[2,2-difluoroethyl-(5,6-difluoro-2-oxo-1H-quinazolin-4-yl)amino]-2-pyridyl]-2,2-dimethyl-but-3-ynenitrile]: 24.2 nM and 14.1 nM.
For the compound `O=c1nc(N2CCCc3c(Br)cncc32)c2c(F)cccc2[nH]1` [Example 70, 4-(5-bromo-3,4-dihydro-1,7-naphthyridin-1(2H)-yl)-5-fluoroquinazolin-2(1H)-one], in assay [1], the EC50 is 40.9 nM. On human DGKα, this compound came in with an IC50 of 170 nM.
On the same counts, the results for `O=c1nc(N2CCCCc3c(Br)cncc32)c2cc(F)ccc2[nH]1` [Example 163, 4-(6-bromo-2,3,4,5-tetrahydro-1H-pyrido[3,4-b]azepin-1-yl)-6-fluoroquinazolin-2(1H)-one] are 8.9 nM and 48.7 nM.
On the same counts, the results for `CC(F)(F)C1(C#Cc2cncc3c2CCCN3c2nc(=O)[nH]c3ccc(F)c(F)c23)CC1` [Example 76, 4-(5-((1-(1,1-difluoroethyl)cyclopropyl)ethynyl)-3,4-dihydro-1,7-naphthyridin-1(2H)-yl)-5,6-difluoroquinazolin-2(1H)-one] are 1.51 nM and 16.1 nM.
On the same counts, the results for `[2H]C([2H])([2H])n1c(=O)nc(N(CC(F)F)c2cc(F)cc(C#CC3(C(F)(F)F)CC3)c2)c2c(F)cccc21` [Example 22, 4-[N-(2,2-difluoroethyl)-3-fluoro-5-[2-[1-(trifluoromethyl)cyclopropyl]ethynyl]anilino]-5-fluoro-1-(trideuteriomethyl)quinazolin-2-one] are 1.61 nM and 55.6 nM.

The values are drawn from patent publication US11932634B2 (Gilead Sciences, Inc., priority 2021, dated 2024).
